These results are taken from patent US6664284B2, “Stabilized carvedilol injection solution” (Roche Diagnostics GmbH, priority 1998, dated 2003).

Data set [1] in a line: physchem. Conditions: pH 6.1, water.
Data set [2] deals with lipid peroxidation. Conditions: reported by Yue et al.; cited from earlier work.
Data set [3] can be described thus: physchem. Conditions: aqueous with cosolvent or surfactant or cyclodextrin.
Data set [4] can be described thus: Solubility of loop diuretics in the acidic to maximum neutral aqueous formulations. Conditions: acidic to neutral aqueous carvedilol injection solutions, aqueous with cosolvent or surfactant or cyclodextrin.

≈ marks a conversion by molar mass, not a printed value.

`COc1ccccc1OCCNCC(O)COc1cccc2[nH]c3ccccc3c12` (stereo not drawn) [carvedilol, 1-(9H-carbazol-4-yloxy)-3-[[2-(2-methoxyphenoxy)ethyl]amino]-2-propanol] displayed a solubility in data set [1] of approximately 2 µg/mL (≈ 4.92 µM). Further, the “antioxidative activity, lipid peroxidation” value in data set [2] is recorded as “inhibit lipid peroxidation”. In addition, under “pH 6.1”, the “solubility of carvedilol in water” value was “about 0.2 mg/100 ml”. Also, the “pH value resulting from saturated solution in water” value (water) turned out to be 6.1.

Take `Cc1cccc(Nc2ccncc2S(=O)(=O)NC(=O)NC(C)C)c1` [Torasemide]: the solubility in data set [3] fell in the range of 1000 to 2000 µg/mL (≈ 2870 to 5740 µM).

For `NS(=O)(=O)c1cc(-c2nnn[nH]2)c(NCc2cccs2)cc1Cl` [azosemide], the solubility in data set [4] is 1000 to 3000 µg/mL (≈ 2700 to 8090 µM).
